Data from patent US5304473A (Eli Lilly and Company, priority 1991, dated 1994).

Tests used:
rat adipocytes = experiment: Glucose transport assay in rat adipocytes; type: cell-based; conditions: glucose uptake by adipocytes
Procedure: (§1) Metab., Vol.67, pgs. 194-197, the entire teaching of which is hereby incorporated by reference, except that the incubation was performed at 4° C. for 18 hours and membranes were collected on a Skatron Cell Harvester (commercially available from Skatron, Inc., Sterling, Va.). The glucose transport assay in rat adipocytes was performed in substantial accordance with the teachings of Kashwagi, M., et al., (1983) J. Clin, Invest., Vol.72, pgs. 1246-1254, the entire teaching of which is hereby incorporated by reference.

[1] = tested on: fasted, male, lean Sprague-Dawley rats; experiment: In vivo hypoglycemic effect in fasted rats; set-up: species or system rat; conditions: for Max. hypoglycemic effect (percent) 1 hour: 1 hour after subcutaneous administration; for Max. hypoglycemic effect (percent) 1 hour / Max. hypoglycemic effect (percent) 2 hours: percent change from zero time corrected for control group; for Max. hypoglycemic effect (percent) 1 hour / Max. hypoglycemic effect (percent) 2 hours / ED50 1 hour / ED50 2 hours: mean ± S.E.M.; for Max. hypoglycemic effect (percent) 2 hours: 2 hours after subcutaneous administration; for ED50 1 hour: half the maximal hypoglycemic activity 1 hour after subcutaneous administration; for ED50 2 hours: half the maximal hypoglycemic activity 2 hours after subcutaneous administration
Procedure: The data presented in Table III were obtained in tests carried out in fasted, male, lean Sprague-Dawley rats (Charles River Laboratories).
In vivo activity of ACB-proinsulins was determined in fasted rats. Male, lean Sprague-Dawley rats (obtained from Charles River Laboratories, Wilmington, Mass. 01887) 190-210 g bodyweight, were fasted for 16 hours. Ten animals were chosen at random and divided into two groups of five rats each. The control group received a subcutaneous saline injection (0.1 ml per 100 g bodyweight) while the experimental groups received a saline injection containing the test peptide. Blood (0.1 ml) was obtained from the tail of each rat for glucose determination (Sigma Diagnostics, glucose [Trinder], address) before administration of the peptide and again at 30 minutes, 1, 2, 3 and 4 hours after administration of the peptide.
The mean percent change from zero time plus or minus S.E.M. in blood glucose for control and treated groups of rats were calculated and the final results expressed by adjusting the change in the experimental group for the change in the control group. The effect of 5 to 7 different doses of each peptide was routinely determined.

[2] = tested on: human placental insulin receptor; experiment: Human placental insulin receptor binding assay (competition with 125I insulin); conditions: placental membrane insulin receptors
Procedure: as §1

[3] = tested on: human placental IGF-I receptor; experiment: Human placental IGF-I receptor binding assay (competition with 125I IGF-I); conditions: human placental membranes
Procedure: as §1

Substance | ED50 Glucose Transport (rat adipocytes) [nM] | Max. hypoglycemic effect (percent) 1 hour [1] [%] | Max. hypoglycemic effect (percent) 2 hours [1] [%] | ED50 1 hour [1] [nM] | ED50 2 hours [1] [nM] | time at which blood glucose levels returned to baseline ([1]; s.c. administration) [h] | time of maximal hypoglycemic response after subcutaneous administration ([1]; s.c. administration) [h] | ED50 Insulin Receptor [2] [nM] | ED50 IGF-I Receptor [3] [nM] | Relative biological action to insulin 1 hour ([1]; 1 hour, subcutaneous, insulin = 100.0) | Relative biological action to insulin 2 hours ([1]; 2 hours, subcutaneous, insulin = 100.0)
Insulin: human insulin, two-chain protein hormone, reference | 0.043 | 59.0 ± 4.3 | 45.7 ± 6.7 | 1.0 ± 0.01 | 1.6 ± 0.09 | 3 to 4 | 1 |  |  |  | 
Proinsulin: naturally occurring human (BCA) proinsulin, reference |  | 55.1 ± 2.6 | 61.0 ± 4.0 | 91. ± 1.7 | 8.2 ± 0.8 |  | 2 | 20.4 | 10000 | 14.3 ± 2.8 | 19.5 ± 1.8
IGF-I: human IGF-I, reference ligand of the IGF-I receptor |  |  |  |  |  |  |  |  | 0.45 |  | 
